Measurements taken from PubChem BioAssay AID1963429 (Molecular Pharmacology Branch, DTP, NCI, 2024).

System: 126254-015-R-J1-PDC complex spheroid growth, % test/control
Assay: Anticancer human tumor 126254-015-R-J1-PDC patient-derived soft tissue sarcoma cell line growth inhibition [Asc]
Conditions: for IC50: curve of first compound; for viability, T/C: stronger effect = lower value
Description: Multicellular complex tumor spheroid response to apoptosis pathway targeting inhibitors Alrizomadlin, Pelcitoclax, and Dasminapant in combination with a variety of drugs and investigational agents in selected tumor cell lines
The MDM2 inhibitor alrizomadlin, the Bcl-2/Bcl-xL inhibitor pelcitoclax, and the IAPs inhibitor dasminapant were evaluated both individually and in combination with standard of care and investigational anticancer small molecules within a complex spheroid model of solid tumors. . Complex spheroids include a stromal component modeled by human endothelial cells (HUVEC) and fibroblasts modeled by human mesenchymal stem cells (MSCs). The concentration ranges selected for each drug and investigational agent were based upon clinically achievable concentrations if the clinical Cmax of the agent was known.
Compounds. The drugs and investigational agents: alrizomadlin (APG-115; NSC831270), pelcitoclax (APG-1252; NSC835773), dasminapant (APG-1387;NSC834197), TAK-243 (NSC785004), copanlisib (NSC809693), olaparib (NSC753686), talazoparib (NSC767125), cobimetinib (NSC 768068), eltanexor (KPT-8602, NSC 794443), abemaciclib (NSC 768073), sotorasib (NSC818433), adagrasib (NSC 831453), MRTX-1133 (NSC 836407), Iadademestat (ORY1001, NSC 806812), and RMC-4630 (NSC839698), were obtained from the NCI Developmental Therapeutics Program Chemical Repository. The FDA-approved anticancer drug set is available from the Developmental Therapeutics Program at https://dtp.cancer.gov/organization/dscb/obtaining/available plates.htm. […] The stock solutions were prepared in dimethyl sulfoxide (DMSO, Sigma-Aldrich, St. Louis, MO, cat. D2650) at 800-fold the tested concentration and stored at -70 degrees C prior to their use. All drugs and investigational agents were tested over a range starting from a high concentration at or near the clinical Cmax and decreasing in half-log increments. If the clinical Cmax for an agent had not been determined, the highest concentration tested was 10 microM.
The patient-derived cancer (PDC) cell lines include five colon adenocarcinomas: 186277-243-T-J2-PDC, 616215-338-R-J1-PDC, 439559-082-T-J2-PDC, 463943-066-T-J2-PDC, and 519858-162-T-J1-PDC; three pancreatic carcinomas: 323965-272-R-J2-PDC, 521955-158-R6-J3-PDC, and 521955-158-R2-J5-PDC; two uterine sarcomas: 327498-152-R-J2-PDC and 993429-296-R-J1-PDC; two rhabdomyosarcomas: 755483-174-R-J1-PDC and 772245-204-R-J1-PDC; two soft tissue sarcomas: 126254-015-R-J1-PDC and 494315-158-R-J1-PDC; two malignant fibrous histiocytomas: 317291-083-R-J1-PDC and 596521-263-R-J1-PDC; two breast carcinomas: 171881-019-R-J1-PDC and 885512-296-R-J2-PDC; and one ovarian carcinoma: 6556581-035-R-J-PDC were obtained from the NCI PDMR, (https://pdmr.cancer.gov). The established cell lines HSSY-2 synovial sarcoma (RRID:CVCL 8719), SYO-1 synovial sarcoma (RRID:CVCL_7146), MPNST malignant peripheral neural sheath tumor were obtained from the Sloan Kettering Institute. The following established cell lines were purchased from the American Type Culture Collection (ATCC, Manassas, VA), Sor the received from the NCI repository:, PANC-1 pancreatic carcinoma (CRL-1469, RRID:CVCL_0480), OVCAR-5 ovarian carcinoma (RRID:CVCL_1628), OVCAR-8 ovarian carcinoma (RRID:CVCL_1629), , MCF-7 breast carcinoma (CRL-12584, RRID:CVCL_0031), MDA-MB-231 breast carcinoma (CRL-12532, RRID:CVCL_0062), NCI-H1876 small cell lung carcinoma (CRL-5902, RRID:CVCL_1503), NCI-H510A small cell lung carcinoma (HTB-184, RRID:CVCL_1565), NCI-H1417 (CRL-5869, RRID:CVCL_1469), and NCI-H196 small cell lung carcinoma (CRL-5823, RRID:CVCL_1509). Dr. Peter Houghton (Greehey Children's Cancer Research Institute, University of Texas Health Science Center, San Antonio, TX) provided Rh-18 rhabdomyosarcoma (RRID:CVCL_1659). Pooled donor human umbilical vein endothelial cells (HUVEC, Lonza, cat. CC-2519) and human mesenchymal stem cells (hMSC, Lonza, cat. PT-2501) were purchased from Lonza (Walkersville, MD).
Cell Culture. […]
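Also: spheroids exposed to compound for seven days.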
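For viability, T/C in this document: 100% = DMSO vehicle control wells.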

Cc1nc(N2CCC3(CC2)COC(C)C3N)c(CO)nc1Sc1ccnc(N)c1Cl (stereo not given) + CCN1C(C(=O)NC23CCC(C(=O)O)(CC2)CC3)C(c2cccc(Cl)c2F)C2(C(=O)Nc3cc(Cl)ccc32)C12CCCCC2
IC50 (second compound 0.03 µM): 1430 nM
IC50 (second compound 0.0949 µM): 759 nM
IC50 (second compound 0.3 µM): 1050 nM
IC50 (second compound 0.949 µM): 785 nM
IC50 (second compound 3 µM): 891 nM
viability, T/C (second compound 0.03 µM, first compound 0.00949 µM): 98.5%
viability, T/C (second compound 0.03 µM, first compound 0.03 µM): 87.4%
viability, T/C (second compound 0.03 µM, first compound 0.0949 µM): 81.1%
viability, T/C (second compound 0.03 µM, first compound 0.3 µM): 64.8%
viability, T/C (second compound 0.03 µM, first compound 0.949 µM): 59.5%
viability, T/C (second compound 0.03 µM, first compound 3 µM): 38.8%
viability, T/C (second compound 0.0949 µM, first compound 0.00949 µM): 90.7%
viability, T/C (second compound 0.0949 µM, first compound 0.03 µM): 95.8%
viability, T/C (second compound 0.0949 µM, first compound 0.0949 µM): 86.3%
viability, T/C (second compound 0.0949 µM, first compound 0.3 µM): 63.2%
viability, T/C (second compound 0.0949 µM, first compound 0.949 µM): 47.8%
viability, T/C (second compound 0.0949 µM, first compound 3 µM): 43%
viability, T/C (second compound 0.3 µM, first compound 0.00949 µM): 88.7%
viability, T/C (second compound 0.3 µM, first compound 0.03 µM): 93.5%
viability, T/C (second compound 0.3 µM, first compound 0.0949 µM): 69.9%
viability, T/C (second compound 0.3 µM, first compound 0.3 µM): 60.7%
viability, T/C (second compound 0.3 µM, first compound 0.949 µM): 54.7%
viability, T/C (second compound 0.3 µM, first compound 3 µM): 42.5%
viability, T/C (second compound 0.949 µM, first compound 0.00949 µM): 91.3%
viability, T/C (second compound 0.949 µM, first compound 0.03 µM): 91.2%
viability, T/C (second compound 0.949 µM, first compound 0.0949 µM): 76.8%
viability, T/C (second compound 0.949 µM, first compound 0.3 µM): 59.1%
viability, T/C (second compound 0.949 µM, first compound 0.949 µM): 51.2%
viability, T/C (second compound 0.949 µM, first compound 3 µM): 38.4%
viability, T/C (second compound 3 µM, first compound 0.00949 µM): 98.2%
viability, T/C (second compound 3 µM, first compound 0.03 µM): 87.8%
viability, T/C (second compound 3 µM, first compound 0.0949 µM): 85%
viability, T/C (second compound 3 µM, first compound 0.3 µM): 63.8%
viability, T/C (second compound 3 µM, first compound 0.949 µM): 49.6%
viability, T/C (second compound 3 µM, first compound 3 µM): 39.2%

C=CC(=O)N1CCN(c2nc(=O)n(-c3c(C)ccnc3C(C)C)c3nc(-c4c(O)cccc4F)c(F)cc23)C(C)C1 (stereo not given) + Cc1c(S(C)(=O)=O)c(-c2cc(F)cc(N3CCN(c4ccc(NS(=O)(=O)c5ccc(NC(CCN6CCC(C(=O)OCCCP(=O)(O)O)CC6)CSc6ccccc6)c(S(=O)(=O)C(F)(F)F)c5)cc4)CC3)c2)c(-c2ccc(Cl)cc2)n1C(C)C
IC50 (second compound 0.1 µM): > 10000 nM
IC50 (second compound 0.316 µM): > 10000 nM
IC50 (second compound 1 µM): > 10000 nM
IC50 (second compound 3.16 µM): > 10000 nM
IC50 (second compound 10 µM): > 10000 nM
viability, T/C (second compound 0.1 µM, first compound 0.0316 µM): 89.8%
viability, T/C (second compound 0.1 µM, first compound 0.1 µM): 89.4%
viability, T/C (second compound 0.1 µM, first compound 0.316 µM): 95.8%
viability, T/C (second compound 0.1 µM, first compound 1 µM): 103%
viability, T/C (second compound 0.1 µM, first compound 3.16 µM): 101%
viability, T/C (second compound 0.1 µM, first compound 10 µM): 76.3%
viability, T/C (second compound 0.316 µM, first compound 0.0316 µM): 90.5%
viability, T/C (second compound 0.316 µM, first compound 0.1 µM): 86.2%
viability, T/C (second compound 0.316 µM, first compound 0.316 µM): 96.5%
viability, T/C (second compound 0.316 µM, first compound 1 µM): 91.2%
viability, T/C (second compound 0.316 µM, first compound 3.16 µM): 107%
viability, T/C (second compound 0.316 µM, first compound 10 µM): 84.1%
viability, T/C (second compound 1 µM, first compound 0.0316 µM): 93.9%
viability, T/C (second compound 1 µM, first compound 0.1 µM): 89%
viability, T/C (second compound 1 µM, first compound 0.316 µM): 91.2%
viability, T/C (second compound 1 µM, first compound 1 µM): 93%
viability, T/C (second compound 1 µM, first compound 3.16 µM): 92.8%
viability, T/C (second compound 1 µM, first compound 10 µM): 77.6%
viability, T/C (second compound 3.16 µM, first compound 0.0316 µM): 83.8%
viability, T/C (second compound 3.16 µM, first compound 0.1 µM): 91.5%
viability, T/C (second compound 3.16 µM, first compound 0.316 µM): 90.9%
viability, T/C (second compound 3.16 µM, first compound 1 µM): 93.2%
viability, T/C (second compound 3.16 µM, first compound 3.16 µM): 101%
viability, T/C (second compound 3.16 µM, first compound 10 µM): 78.1%
viability, T/C (second compound 10 µM, first compound 0.0316 µM): 91.3%
viability, T/C (second compound 10 µM, first compound 0.1 µM): 94.1%
viability, T/C (second compound 10 µM, first compound 0.316 µM): 105%
viability, T/C (second compound 10 µM, first compound 1 µM): 87%
viability, T/C (second compound 10 µM, first compound 3.16 µM): 91.7%
viability, T/C (second compound 10 µM, first compound 10 µM): 81.6%
